Results from patent US20090028795A1, “NOD1 as an Anti-Tumor Agent” (priority 2005, published 2009).
Non-standard residues stand in square brackets, D forms with d. No end group written: not given here. DAP = diaminopimelic acid

Legend:
Type in all cases: cell-based, human
HT29 [1] = test: Apoptosis (PI staining), HT29 cells stably expressing Nod1; details: HT29, Nod1 stably expressed; treatment as labelled
Description: (§1) Cell viability assays. Propidium iodide exclusion assay: Cells were stimulated as indicated for 2 days. Subsequently, cells were harvested, washed twice in FACS buffer (PBS containing 1% FCS and 0.1% NaN3) and resuspended in propidium iodide (PI)-containing FACS buffer (4 ug/ml). The extent of cell death was analyzed with a FACSCalibur flow cytometer (Becton Dickinson, Mountain View, Calif.). DAPI staining: MCF-7 cells were plated in chamber slides, and stimulated for 2 days. Cells were washed with PBS and apoptotic nuclei were stained with 1 μg/ml DAPI (Sigma Chemical Co., St. Louis, Mo.). Cells were fixed in 4% paraformaldehyde and examined by fluorescence microscopy.
(§2) To determine if Nod1-dependent apoptosis occurs in other human cell lines, a series of epithelial cell lines were examined where Nod1 was stably expressed to enhance sensitivity to activation of the Nod1 pathway. Cells were treated with TNFα (T) and γTriDAP (γ) in the presence or absence of CHX (C) and monitored for viability by PI staining as a measure of apoptosis (Table 1).

SK-BR3 = test: Apoptosis (PI staining), SK-BR3 cells
Description: as §1, §2

CaCo2 [2] = test: IL-8 production, CaCo2 cells stably expressing Nod1; details: CaCo2, Nod1 stably expressed; treatment as labelled
[3] = tested on: MCF-7 C20 cells with Nod2; test: Apoptosis in MCF-7 C20 cells complemented with Nod2; details: MCF-7 C20 complemented with Nod2 (data not shown)
MCF-7 C20 cells = test: Propidium iodide exclusion cell death assay, Nod1-deficient MCF-7 C20 cells; details: MCF-7C20 (without Nod1 expression), γTriDAP plus cycloheximide
Description: as §1
To further investigate the role of Nod1 in apoptosis, a variety of cell types were incubated with the Nod1 ligand, […] (γTriDAP), which specifically activates Nod1. The cell types tested included the parental MCF-7 cell line, the Nod1-deficient MCF-7C20 clone, and a cell line engineered to contain an additional human Nod1 allele (MCF-7Nod1) so that Nod1 was over-expressed. […] Cells were treated with γTriDAP in the presence or absence of cycloheximide (CHX) and cell death was then determined by propidium iodide staining and flow cytometry.

MCF-7 Nod1 cells = test: Propidium iodide exclusion cell death assay, MCF-7 cells over-expressing Nod1; details: MCF-7Nod1 cells, cycloheximide and γTriDAP, 48 h treatment
Description: as §1
(§3) To further investigate the role of Nod1 in apoptosis, a variety of cell types were incubated with the Nod1 ligand, […] (γTriDAP), which specifically activates Nod1. The cell types tested included the parental MCF-7 cell line, the Nod1-deficient MCF-7C20 clone, and a cell line engineered to contain an additional human Nod1 allele (MCF-7Nod1) so that Nod1 was over-expressed. To determine whether the resistance of C20 cells to γTriDAP-induced apoptosis resulted from the absence of Nod1, human Nod1 was stably expressed in MCF-7 C20 cells to produce Nod1-sufficient C20 cells (C20/Nod1). As another control, the parental MCF-7 cell line was transfected with an empty retroviral vector to generate MCF-7 Blasto cells. Cells were treated with γTriDAP in the presence or absence of cycloheximide (CHX) and cell death was then determined by propidium iodide staining and flow cytometry.

HT29 [4] = test: IL-8 production, HT29 cells stably expressing Nod1; details: HT29, Nod1 stably expressed; treatment as labelled
293 [5] = test: IL-8 production, 293 cells stably expressing Nod1; details: 293, Nod1 stably expressed; treatment as labelled
CaCo2 [6] = test: Apoptosis (PI staining), CaCo2 cells stably expressing Nod1; details: CaCo2, Nod1 stably expressed; treatment as labelled
Description: as §1, §2

A431 = test: Apoptosis (PI staining), A431 cells stably expressing Nod1; details: A431, Nod1 stably expressed; treatment as labelled
Description: as §1, §2

MCF-7 cells [7] = test: Apoptosis in the presence of TNFα (FIG. 8C); details: with TNFα
Description: FIG. 8A-D illustrate that a synergistic relationship exists between NOD1 and TNFα. FIG. 8A graphically illustrates that the percentage of apoptotic cells increases in dose-specific manner as the concentration of NOD1 increases from 0.0 to 100 μg/ml and the concentration of TNFα increases from 0.5 ng/ml to 1 ng/ml. FIG. 8B graphically illustrates that the percentage of apoptotic cells increases in dose-specific manner as the concentration of cycloheximide increases from 0.0 to 3 μg/ml and the concentration of TNFα increases from 0.5 ng/ml to 1 ng/ml. […] FIG. 8D illustrates NOD1 expression at various time points after exposure of MCF-7 cells to TNFα.

293 [8] = test: Apoptosis (PI staining), 293 cells stably expressing Nod1; details: 293, Nod1 stably expressed; treatment as labelled
Description: as §1, §2

MCF-7 cells [9] = test: Propidium iodide exclusion cell death assay, wild-type (parental/Blasto) MCF-7 cells; details: for cell death / apoptosis: wild type cells, agent alone
Description: as §1, §3

JNK = JNK phosphorylation in MCF-7 RIP2 transfectants
Text: FIG. 7A-C illustrate that both wild-type RIP2 and a kinase-deficient (KD) mutant of RIP2 are functional in the NOD1 apoptosis pathway. However, RIP2 lacking the CARD domain acts as a dominant negative inhibitor of NOD1 signaling. FIG. 7A graphically illustrates the percentage of cells that were apoptotic in populations of wild type RIP2, RIP2 KD and RIP2 ΔCARD cells. MCF-7 cells were stably transfected with wild type Myc-RIP2, Myc-RIP2 KD, and Myc-RIP2 ΔCARD and were left untreated or were treated with γTriDAP in the presence or absence of CHX (3 ug/ml) for 48 h. Cells were incubated with PI and apoptotic cell death was measured by flow cytometry. […] FIG. 7C illustrates γTriDAP-induction of phosphorylation of JNK in RIP2 wild types, MCF-7 RIP2 KD, and RIP2 ΔCARD cells.
The effect of RIP2 expression on γTriDAP-induced JNK phosphorylation was also examined (FIG. 7C).

D-Ala-L-Glu-Diaminopimelic acid ([dA]-Glu-[DAP]; also: Glu joined to DAP through its gamma carboxyl (γTriDAP))
apoptosis (HT29 [1]): poorly responsive
apoptosis (SK-BR3; SK-BR3, Nod1 stably expressed, treatment as labelled): only undergo apoptosis when γTriDAP was added together with TNFα and CHX
apoptosis of SKBR3 cells (SK-BR3; plus TNFα and cycloheximide (FIG. 9B)): highest
IL−8 Production (CaCo2 [2]): poorly responsive
apoptosis [3]: did not result in apoptosis
apoptosis (MCF-7 C20 cells): totally resistant
cell death (MCF-7 Nod1 cells): ~60%
IL−8 Production (HT29 [4]): poorly responsive
IL−8 Production 293 [5]: do release IL-8
apoptosis (CaCo2 [6]): poorly responsive
apoptosis (A431): only undergo apoptosis when γTriDAP was added together with TNFα and CHX
apoptosis in the presence of TNFα (MCF-7 cells [7]): increases apoptosis
apoptosis 293 [8]: resistant
cell death / apoptosis (MCF-7 cells [9]): No cell death
cell death / apoptosis (MCF-7 cells [9]; listed as 7-TriDAP): did not induce apoptosis
cell death (MCF-7 cells [9]; wild-type MCF-7, γTriDAP 50 ug/ml in the presence of cycloheximide 3 ug/ml, 48 h): about 25%
phosphorylation of JNK (JNK; MCF-7 expressing wild type RIP2 or RIP2 KD, in the presence of cycloheximide, 2 h): induced phosphorylation of JNK
phosphorylation of JNK (JNK; RIP2ΔCARD cells, with cycloheximide): no such effect
